# Assay results published in ChEMBL document CHEMBL5625227, “Discovery and optimization of 2,3-diaryl-1,3-thiazolidin-4-one-based derivatives as potent and selective cytotoxic agents with anti-inflammatory activity” (Eur J Med Chem, 2023).
# Calls of active or inactive are those of the source. The calls are words filed in the database; no cut-off is given here.
# What was measured:
# [1] = Acute ulcerogenic activity in Sprague-Dawley male rat assessed as incidence of ulcer/10 animal at 50 mg/kg/day, po administered for 3 days; type: toxicity, organism-based; conditions: in vivo, 72 h, time 3 day
# [2] = Acute ulcerogenic activity in Sprague-Dawley male rat assessed as average number of ulcers at 50 mg/kg/day, po administered for 3 days; type: toxicity, organism-based; conditions: in vivo, 72 h, time 3 day
# Rattus norvegicus [3] = assay: Antiinflammatory activity against carrageenan-induced paw edema Sprague-Dawley rat model assessed as inhibition of inflammation at 50 mg/kg, po after 3 hrs relative to control; type: functional; parameters: scale not given: the % may be the effect or the level left
# [4] = Acute ulcerogenic activity in Sprague-Dawley male rat assessed as change in normal gastric mucosa with mild congestion of the blood vessels in the submucosa at 50 mg/kg/day, po administered for 3 days by hematoxylin and eosin staining method; type: toxicity, organism-based, Stomach; conditions: in vivo, 72 h, time 3 day
# Rattus norvegicus [5] = assay: Antiinflammatory activity against carrageenan-induced paw edema Sprague-Dawley rat model assessed as inhibition of inflammation at 50 mg/kg, po after 5 hrs relative to control; type: functional; parameters: scale not given: the % may be the effect or the level left
# Rattus norvegicus [6] = assay: Antiinflammatory activity against carrageenan-induced paw edema Sprague-Dawley rat model assessed as inhibition of paw edema by measuring edema thickness at 50 mg/kg, po measured after 3 hrs (reference value: 1.41 +/- 0.13 mm); type: functional
# HT-29 [7] = assay: Anticlonogenic activity against human HT-29 cells assessed as reduction in number of colonies at 0.025 uM incubated for 24 hrs by clonogenic survival assay; type: functional, cell-based
# [8] = Selectivity index, ratio of IC50 for cytotoxicity against human MRC5 cells to IC50 for cytotoxicity against human HT-29 cells; conditions: MRC5 cells versus HT-29 cells
# HT-29 [9] = assay: Cytotoxicity against human HT-29 cells assessed as inhibition in cell growth incubated for 72 hrs by MTT assay; type: functional, cell-based; conditions: HT-29, 72 h
# Ehrlich [10] = assay: Antitumor activity against mouse Ehrlich solid carcinoma cells bearing adult male swiss albino mouse assessed as decrease in tumor volume at 50 mg/kg, po administered every other day and observed at 13 days; type: functional, organism-based; conditions: time 13.0 day
# [11] = Acute ulcerogenic activity in Sprague-Dawley male rat assessed as ulcer index at 50 mg/kg/day, po administered for 3 days; type: toxicity, organism-based; conditions: in vivo, 72 h, time 3 day
# HT-29 [12] = assay: Induction of apoptosis in human HT-29 cells assessed as accumulation of cells at early apoptotic stage at 0.025 uM incubated for 24 hrs by Annexin V-FITC/propidium iodide staining based flow cytometry analysis (reference value: 0.1%); type: functional
# MCF7 = assay: Cytotoxicity against human MCF7 cells assessed as inhibition in cell growth incubated for 72 hrs by MTT assay; type: functional, cell-based; conditions: MCF7, 72 h
# Ehrlich [13] = assay: Antitumor activity against mouse Ehrlich solid carcinoma cells bearing adult male swiss albino mouse assessed as decrease in tumor weight at 50 mg/kg, po administered every other day and observed at 14 days; type: functional, organism-based; conditions: time 14.0 day
# Rattus norvegicus [14] = assay: Antiinflammatory activity against carrageenan-induced paw edema Sprague-Dawley rat model assessed as inhibition of paw edema by measuring edema thickness at 50 mg/kg, po measured after 5 hrs (reference value: 1.39 +/- 0.11 mm); type: functional
# [15] = Acute ulcerogenic activity in Sprague-Dawley male rat assessed as average severity of ulcers at 50 mg/kg/day, po administered for 3 days; type: toxicity, organism-based; conditions: in vivo, 72 h, time 3 day
# A2780 = assay: Cytotoxicity against human A2780 cells assessed as inhibition in cell growth incubated for 72 hrs by MTT assay; type: functional, cell-based; conditions: A2780, 72 h
# [16] = Selectivity index, ratio of IC50 for cytotoxicity against human MRC5 cells to IC50 for cytotoxicity against human A2780 cells; conditions: MRC5 cells versus A2780 cells
# Rattus norvegicus [17] = assay: Antiinflammatory activity against carrageenan-induced paw edema Sprague-Dawley rat model assessed as inhibition of inflammation at 50 mg/kg, po after 1 hr relative to control; type: functional; parameters: scale not given: the % may be the effect or the level left
# HT-29 [18] = assay: Anti-migration activity in human HT-29 cells assessed as suppression in cell migration at 0.025 uM incubated 48 hrs by wound-healing assay; type: functional, cell-based
# HT-29 [19] = assay: Induction of apoptosis in human HT-29 cells assessed as accumulation of cells at viable stage at 0.025 uM incubated for 24 hrs by Annexin V-FITC/propidium iodide staining based flow cytometry analysis (reference value: 91.7%); type: functional
# HT-29 [20] = assay: Induction of apoptosis in human HT-29 cells assessed as accumulation of cells at necrotic stage at 0.025 uM incubated for 24 hrs by Annexin V-FITC/propidium iodide staining based flow cytometry analysis (reference value: 8.1%); type: functional
# Ehrlich [21] = assay: Antitumor activity against mouse Ehrlich solid carcinoma cells bearing adult male swiss albino mouse assessed as decrease in tumor volume at 50 mg/kg, po administered every other day and observed at 9 days; type: functional, organism-based; conditions: time 9.0 day
# HT-29 [22] = assay: Induction of apoptosis in human HT-29 cells assessed as accumulation of cells at late apoptotic stage at 0.025 uM incubated for 24 hrs by Annexin V-FITC/propidium iodide staining based flow cytometry analysis (reference value: 0.2%); type: functional
# Ehrlich [23] = assay: Antitumor activity against mouse Ehrlich solid carcinoma cells bearing adult male swiss albino mouse assessed as tumor growth inhibition at 50 mg/kg, po administered every other day and observed at 13 days relative to control; type: functional; conditions: 312 h, time 13 day, read-out: TGI
# Ehrlich [24] = assay: Antitumor activity against mouse Ehrlich solid carcinoma cells bearing adult male swiss albino mouse assessed as decrease in tumor volume at 50 mg/kg, po administered every other day and observed at 5 days; type: functional, organism-based; conditions: time 5.0 day
# [25] = Selectivity index, ratio of IC50 for cytotoxicity against human MRC5 cells to IC50 for cytotoxicity against human MCF7 cells; conditions: MRC5 cells versus MCF7 cells
# [26] = biological target: T1, Prostaglandin G/H synthase 1 (Ovis aries, UniProt P05979); assay: Inhibition of ovine COX-1
# T1 sequence (P05979 whole entry): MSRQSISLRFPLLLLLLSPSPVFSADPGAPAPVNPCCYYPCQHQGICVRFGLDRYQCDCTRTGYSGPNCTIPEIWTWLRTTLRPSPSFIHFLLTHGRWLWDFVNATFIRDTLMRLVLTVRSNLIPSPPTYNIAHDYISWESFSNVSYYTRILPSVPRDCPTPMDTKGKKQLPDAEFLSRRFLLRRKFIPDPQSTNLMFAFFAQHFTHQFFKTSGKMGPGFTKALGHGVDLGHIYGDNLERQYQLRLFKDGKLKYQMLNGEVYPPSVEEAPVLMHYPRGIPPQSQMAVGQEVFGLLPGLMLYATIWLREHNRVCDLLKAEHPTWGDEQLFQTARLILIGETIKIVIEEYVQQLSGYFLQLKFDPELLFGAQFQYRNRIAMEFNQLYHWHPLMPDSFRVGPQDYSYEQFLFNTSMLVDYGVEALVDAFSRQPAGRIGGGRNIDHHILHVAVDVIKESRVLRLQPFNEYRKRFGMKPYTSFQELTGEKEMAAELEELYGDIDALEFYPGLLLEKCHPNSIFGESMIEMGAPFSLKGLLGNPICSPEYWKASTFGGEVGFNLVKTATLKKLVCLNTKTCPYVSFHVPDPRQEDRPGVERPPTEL
# [27] = Cytotoxicity against human MRC5 cells assessed as inhibition in cell growth incubated for 72 hrs by MTT assay; type: toxicity, cell-based
# Rattus norvegicus [28] = assay: Antiinflammatory activity against carrageenan-induced paw edema Sprague-Dawley rat model assessed as inhibition of paw edema by measuring edema thickness at 50 mg/kg, po measured after 1 hr (reference value: 0.71 +/- 0.03 mm); type: functional
# Sus scrofa = organism: Sus scrofa; assay: Inhibition of porcine brain tubulin polymerization at 1 uM by fluorescence-based tubulin polymerization assay
smiles,measurement,setting,value
Cc1ccc(C2SCC(=O)N2c2ccc(OCC(=O)Nc3ccc(Cl)cc3)cc2)cc1 (stereo unspecified),Activity,[1],10%
same,Activity,[2],3.33
same,Activity,Rattus norvegicus [3],32.7%
same,Activity,[4],Non-Toxic
same,Activity,Rattus norvegicus [5],47.48%
same,Activity,Rattus norvegicus [6],0.49 mm
same,Activity,HT-29 [7],Active
same,selectivity ratio at 72 h,[8],23.5
same,IC50,HT-29 [9],20 nM
same,Activity,Ehrlich [10],Active
same,UI,[11],15.33
same,Activity,HT-29 [12],19.2%
same,IC50,MCF7,110 nM
same,Activity,Ehrlich [13],Active
same,Activity,Rattus norvegicus [14],0.73 mm
same,Activity,[15],2
same,IC50,A2780,180 nM
same,selectivity ratio at 72 h,[16],2.61
same,Activity,Rattus norvegicus [17],15.3%
same,Activity,HT-29 [18],Active
same,Activity,HT-29 [19],41.1%
same,Activity,HT-29 [20],24.1%
same,Activity,Ehrlich [21],Active
same,Activity,HT-29 [22],15.6%
same,inhibition in vivo at 50 mg/kg,Ehrlich [23],51.6%
same,Activity,Ehrlich [24],Active
same,selectivity ratio at 72 h,[25],4.27
same,IC50,[26],13400 nM
same,IC50 at 72 h,[27],470 nM
same,Activity,Rattus norvegicus [28],0.52 mm
same,inhibition,Sus scrofa,Active
